Experimental data reported in PMC5727842, “Antioxidant and Antidiabetic Effects of Flavonoids: A Structure-Activity Relationship Based Study” (BioMed Research International, 2017).
pIC50: −log10 of the molar value. In brackets after ≈: the same amount, converted by molar mass.

How the values were obtained:
[1] = molecular target: α-glucosidase from Saccharomyces cerevisiae; assay: α-Glucosidase inhibitory assay; type: biochemical; conditions: Table 3; mean ± SEM (n = 3); NA: not active
Protocol: α-Glucosidase inhibitory activity of the flavonoids was carried out according to the standard method with minor modification. […] A solution of 30 mM phosphate buffer (pH 6.5) was used to prepare stock solution of the sample to form a final concentration of 160 μg/mL. Then, 10 μL/well of sample was mixed with 15 μL/well of α-glucosidase from Saccharomyces cerevisiae (Megazyme, Ireland). 50 mM buffer (pH 6.5) was used to prepare the enzyme solution. Then, 115 μL/well of 30 mM buffer (pH 6.5) was added and incubated for 5 min at room temperature. Then, 75 μL/well of PNP-glucoside was added to initiate reaction and incubated at room temperature for 15 min. Finally, about 50 μL glycine at pH 10 was added to stop the reaction. The final volume of 250 μL of compound, positive control, enzyme, 30 mM buffer, and substrate was located in 96-well microplate. The absorbance (Abs) was measured using microplate reader (Tecan NanoQuant Infinite M200, Switzerland) at 405 nm to represent the amount of p-nitrophenol released from PNP-glucoside. […] The equation given below was used to calculate the inhibitory activity (%):(4) Inhibitory activity%=Abs control−Abs sample/Abs control×100%.
Tested on yeast α-glycosidase, the reaction is initiated by reacting the inhibitor (sample) with the α-glycosidase enzyme that competes with […] for the binding site, thus releasing ρ-nitrophenol which was measured in the assay.

[2] = ABTS+ radical scavenging assay; conditions: 734 nm, mean ± SEM (n = 3)
Protocol: An improved ABTS^+ radical decolorization assay was carried out involving direct production of the blue/green ABTS^+ chromophore through the reaction between ABTS and potassium persulfate. Addition of antioxidant to the preformed radical cation reduces it to ABTS to an extent on a time scale depending on the antioxidant activity, the concentration of the antioxidant, and the duration of the reaction. 1 ml ABTS was dissolved in water to make 7 mM concentration of the resultant solution. […] The resultant reaction mixture was allowed to stand in the dark at room temperature for 12–16 h before being used. The ABTS^+ radical solution was diluted with MeOH to an absorbance of 0.7 (±0.02) at 734 nm. Then, 100 μl of sample at various concentrations (1000–0.4889 μg/mL) was mixed with 100 μL of diluted ABTS^+ radical. Each concentration was analyzed in triplicate and the percentage decrease of absorbance at 734 nm with a microplate reader (Tecan NanoQuant Infinite M200, Switzerland) was calculated for each point and the antioxidant capacity of the tested compounds was expressed as percent inhibition (%). The radical scavenging activity of the compounds was measured according to the following equation [29]:(2) % inhibition=Acontrol−Asample/Acontrol×100. IC50 values were calculated by linear regression of plots, and the average percent of scavenging capacity was taken from three replicates. Trolox was used as a standard in comparison for the determination of the antioxidant activity of the flavonoids.

[3] = Ferric reducing antioxidant power (FRAP); conditions: for FRAP (AAE μg): ascorbic acid equivalent, mean ± SEM (n = 3), Table 2
Protocol: This assay was based on the reduction of the ferric tripyridyltriazine (Fe III-TPTZ) complex to the ferrous ion (Fe II) at a low pH forming an intense blue color. In the FRAP assay, compounds that are rich in antioxidant effect exert their action by breaking the free radical chain by donating a hydrogen atom. Briefly, ferric reducing antioxidant power (FRAP) reagent (2.5 mL of a 10 mM TPTZ solution in 40 mM HCl, 2.5 mL of 20 mM FeCl3, and 25 mL of 0.1 M acetate buffer pH 3.6) was prepared and incubated for 10 min at 37°C. Then 20 μL of each compound and ascorbic acid (standard) and 40 μL of FRAP reagent were added to 140 μL of distilled water in a 96-well plate producing a blue-colored solution. The solutions were kept at room temperature for 20 min in the dark and then measured at 593 nm with a microplate reader (Tecan, Switzerland) using a reagent blank composed of 40 μL of FRAP reagents in 200 μL of distilled water. A calibration curve was prepared with a serial dilution of ascorbic acid (standard). The total antioxidant capacity was calculated by interpolating the measured absorbance of the calibration curve and expressed as ascorbic acid equivalents. The results were corrected for dilution and expressed as AAE μg of ascorbic acid/g.

DPP-4 = molecular target: T1, DPP-4 (Homo sapiens, UniProt P27487); assay: Dipeptidyl peptidase IV (DPP-4) inhibitory assay; type: biochemical; conditions: Table 3; mean ± SEM (n = 3); NA: not active
T1 construct: purchased Cayman (Michigan, USA)
T1 sequence (P27487 whole entry): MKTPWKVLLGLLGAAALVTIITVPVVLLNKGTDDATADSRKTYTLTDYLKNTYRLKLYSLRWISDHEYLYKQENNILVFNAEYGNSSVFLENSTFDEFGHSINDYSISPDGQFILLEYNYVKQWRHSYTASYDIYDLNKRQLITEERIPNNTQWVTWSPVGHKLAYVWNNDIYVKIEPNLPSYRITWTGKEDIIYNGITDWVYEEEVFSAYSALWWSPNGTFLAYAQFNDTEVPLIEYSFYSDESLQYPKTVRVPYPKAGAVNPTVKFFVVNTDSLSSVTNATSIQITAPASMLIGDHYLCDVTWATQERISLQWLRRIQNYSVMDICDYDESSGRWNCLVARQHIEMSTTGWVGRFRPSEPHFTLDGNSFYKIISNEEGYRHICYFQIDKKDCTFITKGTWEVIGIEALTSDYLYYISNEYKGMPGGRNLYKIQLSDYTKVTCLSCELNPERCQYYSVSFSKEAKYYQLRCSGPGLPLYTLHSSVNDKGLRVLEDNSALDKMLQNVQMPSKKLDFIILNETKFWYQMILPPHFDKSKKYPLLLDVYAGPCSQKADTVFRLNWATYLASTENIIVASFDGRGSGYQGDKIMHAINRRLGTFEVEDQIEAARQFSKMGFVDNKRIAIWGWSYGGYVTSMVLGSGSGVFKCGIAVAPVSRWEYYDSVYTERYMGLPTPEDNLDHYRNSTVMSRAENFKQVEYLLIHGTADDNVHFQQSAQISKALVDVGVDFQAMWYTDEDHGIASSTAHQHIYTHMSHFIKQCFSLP
Protocol: Dipeptidyl peptidase (IV) inhibitors work by inhibiting the action of this enzyme, thereby prolonging the activity of incretins that play an important role in insulin secretion and blood glucose control regulation. DPP-4 inhibitory assay was performed as per the standard method (Cayman, USA). Firstly, 1 mg of sample was dissolved in 10% of DMSO and MeOH as the stock solution. For initial activity (100%), 10 μL of MeOH, 30 μL of diluted assay buffer, and 10 μL of diluted DPP-4 (Cayman, USA) were added to 96-well microplate. […] For background well, 10 μL of MeOH and 40 μL of diluted assay buffer were added. Then, 10 μL of prepared sample and 30 μL of diluted assay buffer were added with 10 μL of diluted DPP-4. After that, 50 μL of substrate solution was added to all wells to initiate the reaction and further incubated in the dark at 37°C for 30 min. Finally, plate was read at 360 nm of excitation wavelength and 465 nm of emission wavelength using fluorescence microplate reader (Perkin Elmer, Germany). All determinations were done in triplicate and half maximal concentration (IC50) values were calculated from the percentage of inhibition based on the linear regression analysis. The equation given below was applied to calculate the inhibitory activity (%):(5) Inhibitory activity%=Initial Activity−Sample/Initial Activity×100%.
For DPP-4 inhibitory assay, the reaction is based on the cleavage of the peptide bond by DPP releasing the free Gly-Pro-aminomethylcoumarin group, a fluorogenic substrate resulting in fluorescence excitation and emission.

[4] = DPPH radical scavenging assay; conditions: 30 min, 517 nm, mean ± SEM (n = 3)
Protocol: Each sample's stock solution was diluted to final concentrations of 1000–0.4889 μg/mL in MeOH. A total of 1 mL of a 0.3 mM DPPH methanolic solution was added to 2.5 mL of sample solution of different concentrations and allowed to react at room temperature. After 30 min, the absorbance (Abs) values were measured at 517 nm with a microplate reader (Tecan NanoQuant Infinite M200, Switzerland) and converted into the percentage antioxidant activity using the following equation described previously: (1) % antioxidant activity=100−Abssample−Abssample blank/Abscontrol−Abscontrol blank×100. MeOH + compound solution was used as a blank, while DPPH solution plus MeOH was used as a negative control. The positive controls were DPPH solution plus 1 mM ascorbic acid. The IC50 values were calculated by linear regression of plots. The average percent of scavenging capacity was taken from three replicates.

[5] = Rapid screening of radical scavenging activity by dot blot assay (DPPH staining); conditions: silica sheet stained with DPPH in MeOH, dilutions from 1000 μg/mL
Protocol: An aliquot (20 μL) of each dilution of each group was carefully loaded on a […] TLC plate and allowed to dry for 10 min. Drops of each sample were loaded in the order of decreased concentration along the 16 columns. The staining of the silica plate was based on the procedure of Soler-Rivas et al.. […] The intensity of the yellow color depends upon the amount and nature of radical scavenger present in the flavonoids.

[6] = molecular target: T2, xanthine oxidase from buttermilk (Bos taurus, UniProt P80457); assay: Xanthine oxidase inhibitory assay (XOI); type: biochemical
T2 construct: 0.3 U/mL enzymes (xanthine oxidase from buttermilk); purchased Sigma-Aldrich (Singapore); host or cells: buttermilk (natural source)
T2 sequence (P80457 whole entry): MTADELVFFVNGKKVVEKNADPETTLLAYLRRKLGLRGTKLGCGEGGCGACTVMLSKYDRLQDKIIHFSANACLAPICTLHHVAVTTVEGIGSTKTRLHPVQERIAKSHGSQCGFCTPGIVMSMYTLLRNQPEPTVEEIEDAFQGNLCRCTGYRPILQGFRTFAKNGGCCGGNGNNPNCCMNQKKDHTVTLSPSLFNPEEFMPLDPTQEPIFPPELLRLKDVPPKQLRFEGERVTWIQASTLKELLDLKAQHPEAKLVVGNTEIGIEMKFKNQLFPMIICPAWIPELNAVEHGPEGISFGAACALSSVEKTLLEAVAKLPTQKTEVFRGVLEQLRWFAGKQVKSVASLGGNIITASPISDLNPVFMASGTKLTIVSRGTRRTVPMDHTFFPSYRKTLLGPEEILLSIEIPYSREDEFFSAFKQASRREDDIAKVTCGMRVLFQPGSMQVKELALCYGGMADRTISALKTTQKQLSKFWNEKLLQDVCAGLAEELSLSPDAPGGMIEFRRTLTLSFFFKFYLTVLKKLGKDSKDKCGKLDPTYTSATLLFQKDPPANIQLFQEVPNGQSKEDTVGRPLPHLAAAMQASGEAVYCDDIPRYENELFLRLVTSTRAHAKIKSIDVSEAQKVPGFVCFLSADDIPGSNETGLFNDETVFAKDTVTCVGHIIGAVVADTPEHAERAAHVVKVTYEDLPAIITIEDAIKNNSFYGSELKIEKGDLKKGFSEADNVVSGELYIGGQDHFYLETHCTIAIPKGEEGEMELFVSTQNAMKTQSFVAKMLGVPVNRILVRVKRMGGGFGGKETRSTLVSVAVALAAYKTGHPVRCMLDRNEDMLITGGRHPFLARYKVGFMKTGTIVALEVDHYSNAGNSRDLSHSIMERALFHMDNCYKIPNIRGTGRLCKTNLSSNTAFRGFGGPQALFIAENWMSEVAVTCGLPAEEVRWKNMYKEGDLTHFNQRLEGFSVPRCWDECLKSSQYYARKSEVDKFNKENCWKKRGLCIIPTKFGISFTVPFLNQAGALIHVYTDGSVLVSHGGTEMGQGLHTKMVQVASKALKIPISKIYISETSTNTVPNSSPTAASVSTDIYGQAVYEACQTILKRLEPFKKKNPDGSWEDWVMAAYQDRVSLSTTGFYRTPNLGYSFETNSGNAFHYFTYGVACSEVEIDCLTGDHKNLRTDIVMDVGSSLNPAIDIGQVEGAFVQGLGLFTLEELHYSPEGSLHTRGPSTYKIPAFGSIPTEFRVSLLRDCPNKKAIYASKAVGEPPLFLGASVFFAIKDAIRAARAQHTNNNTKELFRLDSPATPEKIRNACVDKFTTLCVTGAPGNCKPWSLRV
Protocol: XO catalyzes the oxidation of hypoxanthine to xanthine and subsequently to uric acid. The inhibition of XO reduces both vascular oxidative stress and circulating levels of uric acid. This assay is based on the fact that the superoxide anions are generated by the xanthine. The xanthine oxidase inhibitory activity was measured spectrophotometrically (Tecan NanoQuant Infinite M200, Switzerland) at 295 nm under aerobic condition with slight modification. The reaction mixture contained 50 mM phosphate buffer (pH 7.5), 0.15 mM xanthine (substrate), and 0.3 U/mL enzymes (xanthine oxidase from buttermilk). Samples were prepared by dissolving 1 mg in 5% DMSO in MeOH which gives sample concentration of 144.0 μg/mL in assay. […] The absorption increment at 295 nm indicates the formation of […] of uric acid/min at 25°C. […] All determination was done in triplicate and half maximal concentration (IC50) values were calculated from the percentage of inhibition. XO inhibition activity was expressed as the percentage inhibition of XO as follows:(3) % of inhibition=AbsA−B−C−D/AbsA−B×100, where A is the negative control with B as the blank of A which is without the enzyme and the sample while C is the activity of the sample with enzyme with D as the blank of the sample without enzyme.

Row | SMILES | IC50 α-Glucosidase [1] | IC50 ABTS+ [2] | FRAP antioxidant capacity [3] | FRAP (AAE μg) [3] | pIC50 (DPP-4) | IC50 DPPH [4] | radical scavenging activity by dot blot (intensity of yellow spots) [5] | xanthine oxidase inhibitory effect (in words) ([6]; discussion) | pIC50 ([6]; xanthine oxidase inhibition, 295 nm, mean ± SEM (n = 3), NA: not active) | IC50 ABTS+ ([2]; listed as wogonin)
1 | COc1ccc2c(=O)cc(-c3ccccc3)oc2c1O [8-Hydroxy-7-methoxyflavone] | >100^A µg/mg | 3.19 ± 0.15^F µg/ml | 104.92 ± 8.29 AAE μg of ascorbic acid/g | 104.92 ± 8.29^D AAE μg | < 3.43 | 68.24 ± 3.70^C µg/ml | intermediate radical scavenging activity |  |  | 
2 | O=c1cc(-c2ccccc2)oc2cc(O)cc(O)c12 [Chrysin, 5,7-Dihydroxyflavone] | >100^A µg/mg | >100^B µg/ml | 21.38 ± 1.86 AAE μg of ascorbic acid/g | 21.38 ± 1.86^F AAE μg |  | >100^B µg/ml | intermediate radical scavenging activity | low xanthine oxidase inhibitory activity | < 3.41 | 
3 | O=c1cc(-c2ccccc2)oc2c(O)c(O)cc(O)c12 [Norwogonin, 5,7,8-Trihydroxyflavone] | >100^A µg/mg | 1.24 ± 0.19^FG µg/ml | 177.37 ± 1.82 AAE μg of ascorbic acid/g | 152.14 ± 7.30^C AAE μg | < 3.43 | 35.61 ± 1.68^D µg/ml | intermediate radical scavenging activity |  |  | 
4 | COc1c(O)cc(O)c2c(=O)cc(-c3ccccc3)oc12 [Wogonin, 5,7-Dihydroxy-8-methoxyflavone] | >100^A µg/mg | 52.63 ± 2.99^D µg/ml | 39.15 ± 1.68 AAE μg of ascorbic acid/g | 39.15 ± 1.68^E AAE μg | < 3.45 | >100^B µg/ml | intermediate radical scavenging activity |  |  | 52.65 ± 2.99 µg/mL (≈ 185 µM)
